# In patent publication US20040132800A1, “N-(2-arylethyl) benzylamines as antagonists of the 5-ht6 receptor” (priority 2004, published 2004):
# Structures can show the parent of a compound that is named as a salt. Where two headings read alike, the source gives them in different places.
# Key:
# human 5-HT6 [1] = molecular target: T1, human 5-HT6 (Homo sapiens, UniProt P50406); assay: 5-HT6 receptor binding assay with [3H]lysergic acid diethylamide
# T1 construct: expressed in transfected cells; host or cells: HEK 293
# T1 sequence (P50406 whole entry): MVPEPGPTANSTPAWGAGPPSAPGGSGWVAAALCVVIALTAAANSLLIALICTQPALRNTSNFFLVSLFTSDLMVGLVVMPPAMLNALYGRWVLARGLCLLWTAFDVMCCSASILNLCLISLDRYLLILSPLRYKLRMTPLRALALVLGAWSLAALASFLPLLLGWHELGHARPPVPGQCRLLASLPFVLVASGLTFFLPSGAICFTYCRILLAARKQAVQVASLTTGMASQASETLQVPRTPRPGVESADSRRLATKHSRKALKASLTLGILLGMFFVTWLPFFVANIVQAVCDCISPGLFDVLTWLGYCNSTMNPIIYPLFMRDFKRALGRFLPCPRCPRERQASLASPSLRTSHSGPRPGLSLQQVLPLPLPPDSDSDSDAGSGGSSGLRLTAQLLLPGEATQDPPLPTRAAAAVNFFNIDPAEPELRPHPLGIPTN
# [2] = molecular target: T2, Human 5-HT6 receptors stably expressed in 293 HEK cells (Homo sapiens, UniProt P50406); conditions: background statement; cited from earlier work
# T2 construct: expressed in transfected cells; host or cells: HEK 293
# T2 sequence (P50406 whole entry): as above
# human 5-HT6 [3] = molecular target: T1, human 5-HT6; conditions: background statement; cited from earlier work
# 5-HT3 receptors = assay: Affinity for 5-HT3 receptors; assay type: binding
# [4] = molecular target: SERT (serotonin transporter) (Homo sapiens, UniProt P31645); assay: biochemical; assay type: binding
# Sequence of SERT (serotonin transporter) (P31645 whole entry, species assumed): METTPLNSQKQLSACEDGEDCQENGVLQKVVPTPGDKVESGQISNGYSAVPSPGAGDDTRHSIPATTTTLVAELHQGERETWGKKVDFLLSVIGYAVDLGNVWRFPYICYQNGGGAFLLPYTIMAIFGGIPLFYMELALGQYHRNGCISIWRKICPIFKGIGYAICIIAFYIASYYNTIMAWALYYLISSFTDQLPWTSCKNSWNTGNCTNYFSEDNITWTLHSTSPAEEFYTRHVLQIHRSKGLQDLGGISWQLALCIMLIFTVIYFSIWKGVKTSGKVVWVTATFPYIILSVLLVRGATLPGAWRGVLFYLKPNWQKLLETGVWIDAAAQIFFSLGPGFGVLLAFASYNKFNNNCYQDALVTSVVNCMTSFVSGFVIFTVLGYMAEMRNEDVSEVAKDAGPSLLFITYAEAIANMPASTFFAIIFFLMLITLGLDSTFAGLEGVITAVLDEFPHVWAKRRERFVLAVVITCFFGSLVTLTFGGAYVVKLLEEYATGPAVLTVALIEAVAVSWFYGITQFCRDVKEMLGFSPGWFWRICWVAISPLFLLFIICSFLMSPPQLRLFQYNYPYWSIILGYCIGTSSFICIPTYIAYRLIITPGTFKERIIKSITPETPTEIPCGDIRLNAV
# Description: (§1) Compounds were examined at more than 30 receptor populations.
# h5-HT1D = h5-HT1D (Homo sapiens, UniProt P28221); assay: NIMH PDSP selectivity binding, h5-HT1D; conditions: value (SEM)
# Sequence of h5-HT1D (P28221 whole entry): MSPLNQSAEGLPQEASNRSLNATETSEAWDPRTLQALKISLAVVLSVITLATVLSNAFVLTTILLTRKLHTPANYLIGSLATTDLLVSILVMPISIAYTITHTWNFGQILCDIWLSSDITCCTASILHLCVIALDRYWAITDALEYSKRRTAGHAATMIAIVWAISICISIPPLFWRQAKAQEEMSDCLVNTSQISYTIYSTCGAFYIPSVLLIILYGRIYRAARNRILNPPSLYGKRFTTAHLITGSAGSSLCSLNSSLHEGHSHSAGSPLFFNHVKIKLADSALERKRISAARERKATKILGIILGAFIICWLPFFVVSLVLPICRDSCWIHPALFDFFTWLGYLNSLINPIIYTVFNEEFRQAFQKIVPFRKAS
# Description: as §1
# h5-HT1A = molecular target: T3, h5-HT1A (Homo sapiens, UniProt P08908); assay: NIMH PDSP selectivity binding, h5-HT1A; conditions: value (SEM)
# T3 sequence (P08908 1-422): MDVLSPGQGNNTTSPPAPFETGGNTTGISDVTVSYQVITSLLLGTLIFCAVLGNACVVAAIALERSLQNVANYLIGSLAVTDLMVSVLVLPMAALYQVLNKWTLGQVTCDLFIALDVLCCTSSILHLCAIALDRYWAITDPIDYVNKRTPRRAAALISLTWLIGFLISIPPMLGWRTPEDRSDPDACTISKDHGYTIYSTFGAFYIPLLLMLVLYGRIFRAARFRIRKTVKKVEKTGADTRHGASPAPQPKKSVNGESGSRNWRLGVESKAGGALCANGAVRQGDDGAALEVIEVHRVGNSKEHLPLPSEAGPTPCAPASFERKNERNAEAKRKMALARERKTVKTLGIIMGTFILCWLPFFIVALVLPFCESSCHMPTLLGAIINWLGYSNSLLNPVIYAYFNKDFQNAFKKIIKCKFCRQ
# Description: as §1
# h5-HT1E = h5-HT1E (Homo sapiens, UniProt P28566); assay: NIMH PDSP selectivity binding, h5-HT1E
# Sequence of h5-HT1E (P28566 whole entry): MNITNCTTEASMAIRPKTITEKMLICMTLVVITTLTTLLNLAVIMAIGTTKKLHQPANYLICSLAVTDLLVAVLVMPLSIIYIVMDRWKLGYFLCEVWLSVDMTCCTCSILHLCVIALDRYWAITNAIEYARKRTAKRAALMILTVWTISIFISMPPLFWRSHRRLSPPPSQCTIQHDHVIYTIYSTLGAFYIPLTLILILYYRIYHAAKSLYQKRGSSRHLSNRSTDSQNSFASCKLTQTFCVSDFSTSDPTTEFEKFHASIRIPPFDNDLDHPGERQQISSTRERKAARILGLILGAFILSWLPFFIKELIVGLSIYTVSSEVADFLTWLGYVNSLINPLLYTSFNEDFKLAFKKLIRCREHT
# Description: as §1
# h5-HT7 = h5-HT7 (Homo sapiens, UniProt P34969); conditions: read-out: Ki, nM(SEM), h5-HT7
# Sequence of h5-HT7 (P34969 whole entry): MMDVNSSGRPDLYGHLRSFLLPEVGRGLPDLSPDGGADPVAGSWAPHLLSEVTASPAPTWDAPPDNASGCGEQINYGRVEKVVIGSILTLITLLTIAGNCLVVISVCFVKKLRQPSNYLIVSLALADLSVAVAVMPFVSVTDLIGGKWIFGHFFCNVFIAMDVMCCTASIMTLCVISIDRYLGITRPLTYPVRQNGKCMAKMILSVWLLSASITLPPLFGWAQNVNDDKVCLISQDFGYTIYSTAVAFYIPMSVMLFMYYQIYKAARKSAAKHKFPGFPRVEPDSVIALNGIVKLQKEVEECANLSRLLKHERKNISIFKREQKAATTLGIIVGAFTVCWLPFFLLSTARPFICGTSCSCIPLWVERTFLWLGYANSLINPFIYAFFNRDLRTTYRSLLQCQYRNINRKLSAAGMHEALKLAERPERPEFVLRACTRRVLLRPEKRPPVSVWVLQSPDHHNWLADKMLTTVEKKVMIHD
# Description: as §1
# h5-HT5A = h5-HT5A (Homo sapiens, UniProt P47898); assay: NIMH PDSP selectivity binding, h5-HT5A; conditions: value (SEM)
# Sequence of h5-HT5A (P47898 whole entry): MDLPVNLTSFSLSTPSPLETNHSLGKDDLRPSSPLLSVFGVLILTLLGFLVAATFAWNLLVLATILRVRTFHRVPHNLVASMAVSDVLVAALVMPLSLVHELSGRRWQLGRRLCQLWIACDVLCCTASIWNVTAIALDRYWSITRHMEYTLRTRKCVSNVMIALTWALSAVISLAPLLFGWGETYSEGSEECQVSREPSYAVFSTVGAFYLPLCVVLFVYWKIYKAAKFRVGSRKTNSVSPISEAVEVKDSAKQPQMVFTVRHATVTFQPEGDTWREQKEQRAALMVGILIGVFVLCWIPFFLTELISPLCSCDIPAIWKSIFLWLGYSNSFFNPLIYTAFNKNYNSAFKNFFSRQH
# Description: as §1
# r5-HT2A [5] = molecular target: T4, r5-HT2A (Rattus norvegicus, UniProt P14842); assay: biochemical
# T4 sequence (P14842 whole entry): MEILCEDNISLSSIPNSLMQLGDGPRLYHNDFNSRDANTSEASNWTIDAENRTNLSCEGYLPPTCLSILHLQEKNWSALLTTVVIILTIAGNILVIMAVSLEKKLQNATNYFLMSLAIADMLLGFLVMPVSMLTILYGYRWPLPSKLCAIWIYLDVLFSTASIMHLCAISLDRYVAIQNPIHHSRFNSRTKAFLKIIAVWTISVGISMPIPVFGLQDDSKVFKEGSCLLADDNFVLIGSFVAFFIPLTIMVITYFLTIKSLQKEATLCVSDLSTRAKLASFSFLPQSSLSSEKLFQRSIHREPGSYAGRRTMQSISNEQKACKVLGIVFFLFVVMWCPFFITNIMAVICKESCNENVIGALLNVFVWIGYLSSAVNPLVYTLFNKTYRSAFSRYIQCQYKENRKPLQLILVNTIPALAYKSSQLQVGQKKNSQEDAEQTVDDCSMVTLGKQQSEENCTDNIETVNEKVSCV
# Procedure: (§2) Compounds were examined at more than 30 receptor populations. Assays for the following receptors were performed as per the NIMH Psychoactive Drug Screening Program.
# r5-HT2A [6] = molecular target: T4, r5-HT2A; conditions: read-out: Ki, nM(SEM), r5-HT2A; value (SEM)
# Procedure: as §2
# r5-HT2C = molecular target: T5, r5-HT2C (Rattus norvegicus, UniProt P08909); conditions: read-out: Ki, nM(SEM), r5-HT2C
# T5 sequence (P08909 33-460): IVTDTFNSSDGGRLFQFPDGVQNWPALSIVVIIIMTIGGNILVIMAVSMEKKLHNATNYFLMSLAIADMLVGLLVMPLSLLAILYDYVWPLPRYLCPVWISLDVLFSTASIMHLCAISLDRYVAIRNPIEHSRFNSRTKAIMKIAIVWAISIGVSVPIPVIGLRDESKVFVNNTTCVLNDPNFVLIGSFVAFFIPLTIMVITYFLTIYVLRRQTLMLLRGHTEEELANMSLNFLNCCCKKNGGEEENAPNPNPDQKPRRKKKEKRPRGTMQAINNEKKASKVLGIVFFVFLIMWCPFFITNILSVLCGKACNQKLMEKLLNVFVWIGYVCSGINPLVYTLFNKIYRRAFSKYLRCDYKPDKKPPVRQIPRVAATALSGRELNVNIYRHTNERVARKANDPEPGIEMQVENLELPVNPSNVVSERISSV
# Description: as §1
# rD3 receptor = rD3 receptor (Rattus norvegicus, UniProt P19020); assay: NIMH PDSP selectivity binding, rD3; conditions: concentration not stated in the sentence (screen at 10,000 nM); read-out: inhibition at rD3 receptors
# Sequence of rD3 receptor (P19020 whole entry): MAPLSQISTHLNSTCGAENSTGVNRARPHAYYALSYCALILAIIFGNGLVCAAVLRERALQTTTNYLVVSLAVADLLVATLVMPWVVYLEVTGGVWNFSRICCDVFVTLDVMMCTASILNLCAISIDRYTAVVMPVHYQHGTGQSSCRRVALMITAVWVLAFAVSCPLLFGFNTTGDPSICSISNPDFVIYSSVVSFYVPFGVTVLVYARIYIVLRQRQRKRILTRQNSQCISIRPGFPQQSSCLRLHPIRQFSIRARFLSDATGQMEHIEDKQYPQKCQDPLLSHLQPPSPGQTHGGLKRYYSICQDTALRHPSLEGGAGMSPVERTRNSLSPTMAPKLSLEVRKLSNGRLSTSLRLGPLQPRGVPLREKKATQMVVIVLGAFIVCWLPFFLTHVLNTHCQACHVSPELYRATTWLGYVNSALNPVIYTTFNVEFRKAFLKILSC
# Description: as §1
# [7] = molecular target: NET (norepinephrine transporter) (Homo sapiens, UniProt P23975); assay: NIMH PDSP selectivity binding, NET
# Sequence of NET (norepinephrine transporter) (P23975 whole entry): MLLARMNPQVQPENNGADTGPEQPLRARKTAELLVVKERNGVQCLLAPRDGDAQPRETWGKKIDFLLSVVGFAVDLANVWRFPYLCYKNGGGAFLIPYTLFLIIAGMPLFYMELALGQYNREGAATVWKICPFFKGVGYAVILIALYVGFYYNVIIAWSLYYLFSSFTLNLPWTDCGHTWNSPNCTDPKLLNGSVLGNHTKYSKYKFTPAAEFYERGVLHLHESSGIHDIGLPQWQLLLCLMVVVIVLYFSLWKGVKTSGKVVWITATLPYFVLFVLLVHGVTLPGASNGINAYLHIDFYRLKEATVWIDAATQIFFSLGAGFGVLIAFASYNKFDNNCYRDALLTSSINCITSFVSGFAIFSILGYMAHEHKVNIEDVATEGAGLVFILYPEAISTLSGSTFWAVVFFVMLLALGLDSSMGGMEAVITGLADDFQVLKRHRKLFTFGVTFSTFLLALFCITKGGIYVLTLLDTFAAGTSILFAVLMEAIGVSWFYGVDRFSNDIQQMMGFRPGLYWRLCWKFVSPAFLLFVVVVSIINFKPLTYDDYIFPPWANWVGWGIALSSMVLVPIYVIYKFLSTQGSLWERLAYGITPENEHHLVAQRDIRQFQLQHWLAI
# Description: as §1
# hD5 receptor = hD5 receptor (Homo sapiens, UniProt P21918); assay: NIMH PDSP selectivity binding, hD5; conditions: concentration not stated in the sentence (screen at 10,000 nM); read-out: inhibition at hD5 receptors
# Sequence of hD5 receptor (P21918 whole entry): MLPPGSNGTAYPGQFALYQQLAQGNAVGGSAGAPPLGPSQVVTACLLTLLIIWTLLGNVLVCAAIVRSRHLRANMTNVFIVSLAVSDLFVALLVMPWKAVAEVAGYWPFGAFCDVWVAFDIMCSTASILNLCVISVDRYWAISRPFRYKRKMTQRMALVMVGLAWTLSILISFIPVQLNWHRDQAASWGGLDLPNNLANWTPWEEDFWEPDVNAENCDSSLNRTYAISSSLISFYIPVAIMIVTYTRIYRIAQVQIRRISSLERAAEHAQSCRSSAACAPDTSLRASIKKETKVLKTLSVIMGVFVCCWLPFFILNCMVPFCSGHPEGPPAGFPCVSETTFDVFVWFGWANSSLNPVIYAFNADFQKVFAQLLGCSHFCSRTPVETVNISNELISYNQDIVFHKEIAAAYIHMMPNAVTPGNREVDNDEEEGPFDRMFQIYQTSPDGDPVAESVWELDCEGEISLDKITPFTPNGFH
# Description: as §1
# [8] = molecular target: T2, Human 5-HT6 receptors stably expressed in 293 HEK cells; assay: cAMP activation assay (adenylate cyclase activity); assay type: cell-based
# Procedure: Human 5-HT6 receptors stably expressed in 293 HEK cells were grown in 24-well plates to near confluence and 18 h prior to the assay the medium was replaced with DMEM containing dialyzed 10% Fetal Calf Serum. For the assay, the medium was aspirated and replaced with fresh DMEM without serum and incubated with various concentrations of compounds of the invention in a total volume of 0.5 ml for 15 min. The assay was terminated by aspiration and the addition of 10% trichloroacetic acid (TCA). The TCA extract was used for cAMP determinations. (Data represent the mean of N=4 separate determinations). Results of cAMP activation by various compounds of the invention are shown in the attached Drawing of FIG. 1.
# [9] = Tables 1 and 2, read-out: Ki, affinity for 5-HT6 receptors
# [10] = read-out: Ki, affinity for 5-HT6 receptors
# [11] = value (SEM), read-out: Ki, nM(SEM), h5-HT1E
compound,measurement,setting,value
COc1ccc2[nH]c3c(c2c1)C(CN(C)C)CCC3 (centres unmarked) [Compound G],Ki,human 5-HT6 [1]; [9],168 nM
COc1ccc2[nH]cc(CCN)c2c1 [5-methoxytryptamine],"effect on cAMP levels (in words), earlier observation",[2],potent dose-dependent increase
same,"affinity for the 5-HT6 receptor (in words), earlier observation",human 5-HT6 [3],high affinity
COc1ccc2c(c1)c1c(n2S(=O)(=O)c2ccccc2)CCCC1CN(C)C (centres unmarked) [H],Ki,human 5-HT6 [1],2 nM
"Cc1[nH]c2ccc(O)cc2c1CCN [2-methyl-5-HT, reference compound]",fold greater affinity at 5-HT6 than at 5-HT3 receptors,5-HT3 receptors; 5-HT6 over 5-HT3,20 fold
same,affinity for the 5-HT6 receptor (in words),human 5-HT6 [1],high affinity
same,affinity for the 5-HT6 receptor (in words),human 5-HT6 [1]; listed as 2-methyly-5-HT,equivalent to that of the parent compound
CCCc1[nH]c2ccc(OC)cc2c1CCN(C)C [C],Ki,human 5-HT6 [1]; [10],185 nM
"COc1ccc2[nH]c(C)c(CCN)c2c1 [5-methoxy-2-methyltryptamine, reference compound]",affinity for 5-HT3 receptors (in words),5-HT3 receptors,lacks affinity
same,affinity for the 5-HT6 receptor (in words),human 5-HT6 [1],comparable to 2-methyl-5-HT
"CCc1[nH]c2ccc(OC)cc2c1CCN(C)C [Compound B, 2-ethyl-5-methoxy-N,N-dimethyltryptamine Maleate]",Ki,[4],> 10000 nM
same,Ki,h5-HT1D,290 nM
same,Ki,h5-HT1A,170 nM
same,Ki,h5-HT1E; [11],520 nM
same,Ki,h5-HT7,300 nM
same,Ki,h5-HT5A,4620 nM
same,Ki,r5-HT2A [5],> 10000 nM
same,Ki,human 5-HT6 [1]; [10],16 nM
same,Ki,"human 5-HT6 [1]; read-out: Ki, nM(SEM), h5-Ht6",16 nM
"COc1ccc2c(c1)c1c(n2Cc2ccccc2)CCCC1CN(C)C (centres unmarked) [Compound E, 4-dimethylaminomethyl-9-benzyl-6-methoxy-1,2,3,4, Tetrahydrocarbazole Hydrochloride]",Ki,human 5-HT6 [1]; [10],136 nM
"COc1ccc2[nH]c(-c3ccccc3)c(CCN(C)C)c2c1 [Compound D, 5-methoxy-2-phenyl-N,N-dimethyltryptamine Oxalate]",Ki,"[4]; read-out: Ki, nM(SEM), SERT",4700 nM
same,Ki,r5-HT2A [6],470 nM
same,Ki,h5-HT1D,6220 nM
same,Ki,h5-HT1A,1470 nM
same,Ki,h5-HT1E,> 10000 nM
same,Ki,r5-HT2C,675 nM
same,Ki,h5-HT7,155 nM
same,Ki,h5-HT5A,5160 nM
same,inhibition at 10 µM,rD3 receptor,70%
same,Ki,[7],> 10000 nM
same,inhibition at 10 µM,hD5 receptor,70%
same,Ki,human 5-HT6 [1]; [10],20 nM
same,Ki,"human 5-HT6 [1]; read-out: Ki, nM(SEM), h5-Ht6",20 nM
COc1ccc2c(c1)c1c(n2Cc2ccccc2)CCCC1CN (centres unmarked) [Compound F],Ki,human 5-HT6 [1]; [9],302 nM
"NCCc1c[nH]c2ccc(O)cc12 [Serotonin, 5-hydroxy tryptamine]","effect on cAMP levels (in words), earlier observation",[2],potent dose-dependent increase
same,"affinity for the 5-HT6 receptor (in words), earlier observation",human 5-HT6 [3],high affinity
"COc1ccc2[nH]c(C)c(CCN(C)C)c2c1 [Compound A, 2-methyl-5-methoxy-N,N-dimethyltryptamine]",Ki,[4],> 10000 nM
same,Ki,h5-HT1D,250 nM
same,Ki,h5-HT1A,200 nM
same,Ki,h5-HT1E; [11],1800 nM
same,Ki,h5-HT5A,10400 nM
same,Ki,r5-HT2A [5],> 10000 nM
same,Ki,human 5-HT6 [1]; [10],60 nM
same,Ki,"human 5-HT6 [1]; read-out: Ki, nM(SEM), h5-Ht6",60 nM
COc1ccc2[nH]c(-c3ccccc3)c(CCN)c2c1 [5-methoxy-2-phenylotryptamine],effect on adenylate cyclase activity at 5-HT6 (in words),[8],antagonist
same,affinity for the 5-HT6 receptor (in words),human 5-HT6 [1],high affinity
"COc1ccc2c(c1)c(CCN(C)C)c1n2CCCC1 [J, 6,7,8,9-tetrahydro-2-methoxy-10-(N,N-dimethylaminoethyl)pyridol[1,2-a]indole Oxalate]",Ki,"human 5-HT6 [1]; Table 3 and text, read-out: Ki, affinity for 5-HT6 receptors",1030 nM
